Here are results for two compounds from publication PMC7734798 (ACS Medicinal Chemistry Letters, 2020).

Entries after “also recorded” stand apart in the source; their conditions may differ.

One series concerns Olig2. The series is described as follows: Oli-Neu proliferation marker Olig2 expression (Western blot). The format is cell-based, mouse. The note with it: Oli-Neu cells, 5 μM, 48 h. An excerpt:
OPC proliferation and migration to the CNS injury site as well as their differentiation are critical steps toward remyelination in MS. HDAC activity plays a crucial role in OPC proliferation/differentiation; therefore, HDAC modulation is widely considered a promising therapeutic target for MS.[30] […] Therefore, we tested the effect of our compounds on OPC proliferation and differentiation, through cell counting, measure of filaments, and analysis of proliferation/differentiation markers (Figure 7).
Oli-Neu cells were grown in SATO medium (DMEM medium, 2 mM glutamine, 10 μg/ml insulin, 5.5 μg/ml transferrin, 38.72 nM sodium selenite, 100 µM putrescine, 520 nM L-thyroxine (T4), 500 nM triiodo-L-thyronine (T3), 200 nM progesterone, 25 μg/ml of gentamycin) supplemented with 1% heat-inactivated horse serum (HS) in a humidified, 5% CO2 incubator at 37°C. Cell culture medium and all chemicals were from Sigma-Aldrich, except for insulin-transferrin-sodium selenite 100X supplement (Life Technologies Corporation). Cells were plated on 96 well plates, previously coated with 10 μg/mL poly-L-lysine (Sigma-Aldrich; 10 μg/ml) at the density of 2.5 x 10 4/0.2 mL medium/well and treated with increasing concentrations of the compounds (0.5, 1, 5 and 10 μM).
After 24 hours, the viability was evaluated through the MTT assay.
Oli-Neu cells proliferation and differentiation assay
(§1) 48 hours, for cell counting and measure of filaments, 5 random images for each condition were acquired with an Eclipse TS100 (Nikon) microscope using a 10X objective. Cells number and filament length were measured with Fiji ImageJ2 software. After 48 hours for proliferation and 72 hours of treatment for differentiation analysis, cells were lysed in ice-cold lysis buffer (50 mM Tris-HCl pH 7.4, 1% SDS, 0.05% protease inhibitor cocktail; all from Sigma-Aldrich) and protein content was determined by using the Lowry method. […]

A short description of series [1]: PAMPA-BBB permeation assay. The note with it: for Papp at 100 µM: PAMPA, pH 7.4; for BBB penetration estimation, CNS (+/−): PAMPA-BBB prediction.
The subject of another series is CNPase. In words: Oli-Neu differentiation marker CNPase expression (Western blot). The series is classed as cell-based, mouse. The settings on record: Oli-Neu cells, 5 μM, 72 h.
Description: OPC proliferation and migration to the CNS injury site as well as their differentiation are critical steps toward remyelination in MS. HDAC activity plays a crucial role in OPC proliferation/differentiation; therefore, HDAC modulation is widely considered a promising therapeutic target for MS.[30] […] Therefore, we tested the effect of our compounds on OPC proliferation and differentiation, through cell counting, measure of filaments, and analysis of proliferation/differentiation markers (Figure 7). […]
After 24 hours, the viability was evaluated through the MTT assay. […]
as §1

For series [2], the system named is primary rat cerebellar granule neurons (CGNs). The series is described as follows: Neuroprotection assay: glutamate/glycine excitotoxicity in differentiated CGNs (MTT). The series is classed as cell-based. The settings on record: CGNs 8 DIV. As for the experimental part:
Several lines of evidence point to MS as not only an inflammatory but also a neurodegenerative disease. Thus, neuroprotective agents may hold promise for MS therapy.[32] […] Thus, to test the neuroprotective capability of 1 and 2, we used a glutamate excitotoxicity model of primary cultural neurons. At day 8 in vitro (8 DIV), CGNs were pretreated with the compounds for 6 h, before adding 100 μM glutamate/10 μM glycine insult for further 24 h. […] Furthermore, while reference compounds (alone and in combination) increase glutamate/glycine excitotoxicity at higher doses, 1 was not toxic even at the highest concentration tested (25 μM). […]
committee (Protocol n° 17-72-1212) and performed according to Italian and European Community laws on the use of animals for experimental purposes. […]
heat-inactivated FBS (Aurogene), 2 mM glutamine, 100 μM gentamicin sulphate and 25 mM KCl (all from Sigma-Aldrich). […] The viability of CGNs exposed to increasing concentrations of the studied compounds (0, 5, 10 and 25 μM) for 24 h was evaluated through the MTT assay. […] Following a 20 min incubation at 37 °C in the dark, the MTT precipitate was dissolved in 0.1 M Tris-HCl pH 7.5 buffer containing 5% Triton X-100 (all from Sigma-Aldrich) and absorbance was read at 570 nm in a multiplate spectophotometric reader (Bio-Rad). […] After 24 hours, neuronal survival has been evaluated through MTT assay. […]

On to `CC/C=C\C/C=C\C/C=C\CCCCCCCC(=O)NCCNC(=O)C(CCC)CCC` [compound 1], for which, in the series with Olig2, the “expression of Olig2, marker of OPCs proliferation” value is given as “marked decrease”. Also, in series [1], the Papp at 100 µM is 28 ± 5.3 ×10⁻⁶ cm/s and the “BBB penetration estimation, CNS (+/−)” value is reported as “high BBB permeability; also recorded: CNS +”. For the same compound, the “expression of CNPase, marker of differentiation” value with CNPase is recorded as “significant increase”. For the same compound, the “toxicity under glutamate/glycine excitotoxicity at higher doses” value in series [2] (100 μM glutamate/10 μM glycine, highest concentration tested 25 μM) is “not toxic”. For the same compound, the “neuroprotection against glutamatergic excitotoxicity (MTT)” value in series [2] (6 h pretreatment + 24 h with 100 μM glutamate/10 μM glycine, especially at 5 and 10 μM) is given as “more neuroprotective”.
As for `CC/C=C\C/C=C\C/C=C\CCCCCCCC(=O)NCCOC(=O)C(CCC)CCC` [compound 2], the “expression of Olig2, marker of OPCs proliferation” value in the series with Olig2 is recorded as “marked decrease”. In series [1], the Papp at 100 µM was 14.6 ± 1.61 ×10⁻⁶ cm/s and the “BBB penetration estimation, CNS (+/−)” value was “BBB-permeable; also recorded: CNS +”.
